In patent US8314082B2, “Stilbene derivatives for ADP-ribosyl cyclase inhibitors” (Industrial Cooperation Foundation Chonbuk National …, priority 2006, dated 2012):

Experiments:
[1] = test system: Ang II induced [Ca^2+]i increase in rat cardiomyocytes; assay: Ang II-mediated [Ca2+]i increase in cardiomyocytes; type: cell-based; settings: pretreatment with 1 mM; sustained but not initial Ca2+
Protocol: Cardiomyocytes were isolated from Sprague-Dawley rats, weighing 210-240 g, by the method with a slight modification [Xie et al., Biochem. Biophys. Res. Commun. (2005)330:1290-8]. Rat hearts were rapidly excised, cannulated, and subjected to retrograde perfusion on a Langendorff apparatus at 37° C. with Ca^2+-free Krebs-Hanseleit (KH) buffer (10 mM HEPES, 118 mM NaCl, 4.7 mM KCl, 1.2 mM MgSO4, 1.2 mM KH2PO4, 25 mM NaHCO3, 10 mM pyruvate, 11 mM glucose, and […], pH 7.3) for 5 min and then with KH buffer containing 5 mM taurine, 0.075% collagenase Type II and 0.08 mg/l protease type XTV for 7-15 min and washed with KH buffer containing 0.2 mM Ca^2+. The left ventricle was removed, chopped into small pieces and further digested in a glass conical flask at 37° C. for 10 min with shaking. The undigested tissues were removed through a […] nylon sheet. […] Isolated myocytes were pelleted by centrifugation at 60×g for 2 min at room temperature and resuspended in a stabilizing buffer (pH, 7.4) containing 20 mM HEPES, 137 mM NaCl, 4.9 mM KCl, 1.2 mM MgSO4, 15 mM glucose, and 10 mM 2,3-butanedione monoxime (BDM). […] Changes in [Ca^2+]i in cardiomyocytes were determined at 488 nm excitation/530 nm emission by air-cooled argon laser system. The emitted fluorescence at 530 nm was collected using a photomultiplier. […]

[2] = test system: Ang II induced cADPR production in rat cardiomyocytes; assay: Ang II-induced [cADPR]i in cardiomyocytes; type: cell-based; settings: pretreatment
Protocol: [cADPR]i was measured using a cyclic enzymatic assay as described previously [Graeff et al., Biochem. J. (2002)361:379-84]. Aplysia californica ADPR-cyclase was purified from […] according to the method described [Lee et al., Cell Regul. (1991)2:203-9]. Briefly, MMCs were treated with 0.3 ml of 0.6 M perchloric acid under sonication after Ang II treatment. Precipitates were removed by centrifugation at 20,000×g for 10 min. […] After centrifugation for 10 min at 1500×g, the aqueous layer was collected and neutralized with 20 mM sodium phosphate (pH 8). To remove all contaminating nucleotides, the samples were incubated with the following hydrolytic enzymes overnight at 37° C.: 0.44 unit/ml nucleotide pyrophosphatase, 12.5 units/ml alkaline phosphatase, 0.0625 unit/ml NADase, and 2.5 mM MgCl2 in 20 mM sodium phosphate buffer (pH 8.0). Enzymes were removed by filtration using Centricon-3 filters. […] An increase in the resorufin fluorescence was measured at 544 nm excitation and 590 nm emission using a fluorescence plate reader (Molecular Devices Corp., Spectra-Max GEMINI). […] Measurement of [cADPR]i in cardiomyocytes were determined as described above examples 5. […]

[3] = test system: rat kidney ADPR-cyclase; assay: ADPR-cyclase activity assay (cGDPR / e-ADPR fluorescence from NGD+ or e-NAD+); type: biochemical; settings: various concentrations
Protocol: FIGS. 1A and 1B show the inhibition of rat kidney ADPR-cyclase that was incubated with […] NGD^+ or e-NAD^+ in the presence of various concentrations of 4,4′-dihydrioxyazobenzene (DHAB) at 37° C. for 10 min and effects of DHAB on human CD38, rat brain, heart, spleen, and kidney ADPR-cyclase. FIGS. 1A and 1B are referred to as FIG. 1 herein.
Specific ADPR-cyclase activity was determined by measuring cyclic GDP-ribose (cGDPR) or etheno-ADP-ribose (e-cADPR) fluorometrically using NGD^+ or e-NAD^+ as a substrate [Greaff et al., Biochem. J. (2002)361:379-84]. Samples were incubated in the presence of […] NGD^+ or e-NAD^+ with and without an appropriate agent in an assay buffer (25 mM HEPES, pH 7.4, 100 mM NaCl, and 0.1% Triton X-100) in a […]. The reaction mixture was incubated at 37° C. for 10 min. The reaction was stopped by adding […] trichloroacetic acid (10%). […] Fluorescence of cGDPR or e-ADPR in the solution was determined at excitation/emission wavelengths of 297/410 nm (HITACHI F-2000 fluorescence spectrophotometer). cADPR-hydrolase activity was determined by incubating cADPR with ADPR-cyclase or CD38 at 37° C. for 20 min. Hydrolysis of cADPR was analyzed by high performance liquid chromatography as described (White et al., 2000). […]

Row | SMILES | effect on Ang II-evoked sustained Ca2+ increase [1] | effect on Ang II-mediated [cADPR]i [2] | inhibition of generation of cGDPR and e-ADPR from NGD+ and e-NAD+ [3]
1 | Oc1ccccc1/N=N/c1ccccc1O [2,2′-DHAB, 2,2′-Dihydroxyazobenzene] | significantly blocked | inhibited | –
2 | Oc1ccc(N=Nc2ccc(O)cc2)cc1 [4,4′-DHAB, 4,4′-Dihydroxyazobenzene] | – | – | concentration-dependent
